The values below come from ChEMBL document CHEMBL5442219.

Settings in all cases: Compound concentration 10 µM
The target in assay [1] is Histamine H2 receptor (Homo sapiens) (UniProt P25021).
Description: PDSP Primary Binding target: HRH2 - Compounds are tested at 10 uM concentration, plate are incubated at room temperature in the dark for 90 minutes. Reaction are stopped by vacuum filtration onto 0.3% polyethyleneimine soaked filter mats using Filtermate harvester. Scintilation cocktail is then melted onto microwave-dried filters on a hot plate and the radio activity is counted in Microbia counter.
In assay [2] the target is T1, 5-hydroxytryptamine receptor 2C (Homo sapiens) (UniProt P28335).
T1 sequence (whole entry): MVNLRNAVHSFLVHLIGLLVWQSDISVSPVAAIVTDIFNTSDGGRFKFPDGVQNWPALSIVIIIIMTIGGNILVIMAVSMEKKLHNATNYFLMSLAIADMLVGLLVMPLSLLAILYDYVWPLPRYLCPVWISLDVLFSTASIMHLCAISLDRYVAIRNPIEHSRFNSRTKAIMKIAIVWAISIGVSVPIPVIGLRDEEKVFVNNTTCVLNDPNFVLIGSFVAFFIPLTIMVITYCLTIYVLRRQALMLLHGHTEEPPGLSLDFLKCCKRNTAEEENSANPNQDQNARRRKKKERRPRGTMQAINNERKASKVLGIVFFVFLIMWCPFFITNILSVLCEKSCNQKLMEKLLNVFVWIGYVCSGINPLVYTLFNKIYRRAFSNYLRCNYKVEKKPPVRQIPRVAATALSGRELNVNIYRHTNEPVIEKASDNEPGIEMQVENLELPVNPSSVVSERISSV
Description: PDSP Primary Binding target: HTR2C - Compounds are tested at 10 uM concentration, plate are incubated at room temperature in the dark for 90 minutes. Reaction are stopped by vacuum filtration onto 0.3% polyethyleneimine soaked filter mats using Filtermate harvester. Scintilation cocktail is then melted onto microwave-dried filters on a hot plate and the radio activity is counted in Microbia counter.

In assay [3] the target is Beta-3 adrenergic receptor (Homo sapiens) (UniProt P13945).
Chain of Beta-3 adrenergic receptor (Homo sapiens) (P13945 whole entry, looked up): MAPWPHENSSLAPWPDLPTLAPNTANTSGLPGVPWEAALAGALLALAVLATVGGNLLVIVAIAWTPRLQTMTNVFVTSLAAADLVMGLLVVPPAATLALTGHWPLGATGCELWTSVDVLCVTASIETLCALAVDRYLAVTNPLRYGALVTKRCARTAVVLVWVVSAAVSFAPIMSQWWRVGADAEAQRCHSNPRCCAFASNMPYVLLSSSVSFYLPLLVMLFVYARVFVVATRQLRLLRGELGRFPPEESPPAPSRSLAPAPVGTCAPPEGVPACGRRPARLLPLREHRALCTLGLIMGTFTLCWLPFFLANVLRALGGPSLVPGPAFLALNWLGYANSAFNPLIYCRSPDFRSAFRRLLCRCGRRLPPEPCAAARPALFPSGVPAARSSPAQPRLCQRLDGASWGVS
Description: PDSP Primary Binding target: ADRB3 - Compounds are tested at 10 uM concentration, plate are incubated at room temperature in the dark for 90 minutes. Reaction are stopped by vacuum filtration onto 0.3% polyethyleneimine soaked filter mats using Filtermate harvester. Scintilation cocktail is then melted onto microwave-dried filters on a hot plate and the radio activity is counted in Microbia counter.
The target in assay [4] is T2, Muscarinic acetylcholine receptor M1 (Homo sapiens) (UniProt P11229).
T2 sequence (whole entry): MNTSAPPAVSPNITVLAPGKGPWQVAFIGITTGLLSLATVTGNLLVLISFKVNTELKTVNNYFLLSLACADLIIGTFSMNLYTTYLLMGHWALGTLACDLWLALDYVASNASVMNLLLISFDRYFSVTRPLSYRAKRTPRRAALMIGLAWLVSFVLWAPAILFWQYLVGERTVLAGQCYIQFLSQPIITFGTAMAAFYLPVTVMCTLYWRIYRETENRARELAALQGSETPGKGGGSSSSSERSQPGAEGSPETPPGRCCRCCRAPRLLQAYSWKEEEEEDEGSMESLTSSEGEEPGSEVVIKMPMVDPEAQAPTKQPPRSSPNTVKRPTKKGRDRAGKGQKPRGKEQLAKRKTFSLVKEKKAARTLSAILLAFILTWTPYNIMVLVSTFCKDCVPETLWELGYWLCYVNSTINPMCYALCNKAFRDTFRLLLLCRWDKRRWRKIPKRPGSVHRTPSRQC
Description: PDSP Primary Binding target: CHRM1 - Compounds are tested at 10 uM concentration, plate are incubated at room temperature in the dark for 90 minutes. Reaction are stopped by vacuum filtration onto 0.3% polyethyleneimine soaked filter mats using Filtermate harvester. Scintilation cocktail is then melted onto microwave-dried filters on a hot plate and the radio activity is counted in Microbia counter.

Assay [5] concerns the target Mu-type opioid receptor (Homo sapiens) (UniProt P35372).
Description: PDSP Primary Binding target: OPRM1 - Compounds are tested at 10 uM concentration, plate are incubated at room temperature in the dark for 90 minutes. Reaction are stopped by vacuum filtration onto 0.3% polyethyleneimine soaked filter mats using Filtermate harvester. Scintilation cocktail is then melted onto microwave-dried filters on a hot plate and the radio activity is counted in Microbia counter.
Assay [6] addresses T3, Alpha-1B adrenergic receptor (Homo sapiens) (UniProt P35368).
T3 sequence (whole entry): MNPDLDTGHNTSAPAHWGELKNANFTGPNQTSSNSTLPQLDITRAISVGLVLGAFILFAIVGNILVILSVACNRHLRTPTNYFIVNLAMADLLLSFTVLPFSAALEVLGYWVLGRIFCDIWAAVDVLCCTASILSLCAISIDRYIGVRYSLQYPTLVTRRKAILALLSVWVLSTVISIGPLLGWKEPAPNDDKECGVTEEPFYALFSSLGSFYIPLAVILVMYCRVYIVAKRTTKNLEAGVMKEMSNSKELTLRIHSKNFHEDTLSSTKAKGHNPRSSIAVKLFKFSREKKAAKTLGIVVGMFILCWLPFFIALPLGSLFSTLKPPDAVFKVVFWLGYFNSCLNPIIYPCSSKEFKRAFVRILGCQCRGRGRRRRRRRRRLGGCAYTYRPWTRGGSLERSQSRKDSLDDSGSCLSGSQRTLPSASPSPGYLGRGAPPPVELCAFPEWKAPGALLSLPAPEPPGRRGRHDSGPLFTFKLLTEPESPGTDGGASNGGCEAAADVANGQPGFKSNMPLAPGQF
Description: PDSP Primary Binding target: ADRA1B - Compounds are tested at 10 uM concentration, plate are incubated at room temperature in the dark for 90 minutes. Reaction are stopped by vacuum filtration onto 0.3% polyethyleneimine soaked filter mats using Filtermate harvester. Scintilation cocktail is then melted onto microwave-dried filters on a hot plate and the radio activity is counted in Microbia counter.

In assay [7] the target is T4, Alpha-2A adrenergic receptor (Homo sapiens) (UniProt P08913).
T4 sequence (whole entry): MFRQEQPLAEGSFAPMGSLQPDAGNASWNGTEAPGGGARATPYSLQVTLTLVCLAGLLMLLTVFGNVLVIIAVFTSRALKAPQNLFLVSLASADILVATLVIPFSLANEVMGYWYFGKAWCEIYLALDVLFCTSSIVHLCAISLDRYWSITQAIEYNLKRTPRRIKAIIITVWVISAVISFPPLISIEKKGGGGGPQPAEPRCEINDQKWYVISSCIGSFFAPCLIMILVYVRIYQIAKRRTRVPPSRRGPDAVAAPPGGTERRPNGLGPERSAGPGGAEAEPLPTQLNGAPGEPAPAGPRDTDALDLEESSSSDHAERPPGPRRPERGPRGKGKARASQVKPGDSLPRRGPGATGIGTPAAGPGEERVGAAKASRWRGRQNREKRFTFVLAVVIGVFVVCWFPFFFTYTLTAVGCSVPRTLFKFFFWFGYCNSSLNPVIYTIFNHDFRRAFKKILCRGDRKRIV
Description: PDSP Primary Binding target: ADRA2A - Compounds are tested at 10 uM concentration, plate are incubated at room temperature in the dark for 90 minutes. Reaction are stopped by vacuum filtration onto 0.3% polyethyleneimine soaked filter mats using Filtermate harvester. Scintilation cocktail is then melted onto microwave-dried filters on a hot plate and the radio activity is counted in Microbia counter.

Assay [8] addresses T5, Muscarinic acetylcholine receptor M5 (Homo sapiens) (UniProt P08912).
T5 sequence (whole entry): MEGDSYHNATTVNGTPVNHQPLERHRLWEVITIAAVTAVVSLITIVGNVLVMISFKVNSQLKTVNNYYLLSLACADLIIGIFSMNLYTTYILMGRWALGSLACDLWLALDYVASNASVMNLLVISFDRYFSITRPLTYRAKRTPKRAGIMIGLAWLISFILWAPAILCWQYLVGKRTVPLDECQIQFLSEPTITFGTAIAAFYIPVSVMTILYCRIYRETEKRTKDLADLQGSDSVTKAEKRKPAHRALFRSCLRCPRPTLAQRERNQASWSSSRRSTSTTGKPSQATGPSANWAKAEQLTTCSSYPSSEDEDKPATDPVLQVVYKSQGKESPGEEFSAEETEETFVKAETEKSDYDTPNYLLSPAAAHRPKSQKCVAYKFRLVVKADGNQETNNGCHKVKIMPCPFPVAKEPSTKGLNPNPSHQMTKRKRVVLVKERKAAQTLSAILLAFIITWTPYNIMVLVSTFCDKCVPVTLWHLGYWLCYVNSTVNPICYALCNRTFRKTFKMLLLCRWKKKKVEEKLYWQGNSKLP
Description: PDSP Primary Binding target: CHRM5 - Compounds are tested at 10 uM concentration, plate are incubated at room temperature in the dark for 90 minutes. Reaction are stopped by vacuum filtration onto 0.3% polyethyleneimine soaked filter mats using Filtermate harvester. Scintilation cocktail is then melted onto microwave-dried filters on a hot plate and the radio activity is counted in Microbia counter.

Assay [9] addresses 5-hydroxytryptamine receptor 1D (Homo sapiens) (UniProt P28221).
Description: PDSP Primary Binding target: HTR1D - Compounds are tested at 10 uM concentration, plate are incubated at room temperature in the dark for 90 minutes. Reaction are stopped by vacuum filtration onto 0.3% polyethyleneimine soaked filter mats using Filtermate harvester. Scintilation cocktail is then melted onto microwave-dried filters on a hot plate and the radio activity is counted in Microbia counter.

Chain of Histamine H2 receptor (Homo sapiens) (P25021 whole entry): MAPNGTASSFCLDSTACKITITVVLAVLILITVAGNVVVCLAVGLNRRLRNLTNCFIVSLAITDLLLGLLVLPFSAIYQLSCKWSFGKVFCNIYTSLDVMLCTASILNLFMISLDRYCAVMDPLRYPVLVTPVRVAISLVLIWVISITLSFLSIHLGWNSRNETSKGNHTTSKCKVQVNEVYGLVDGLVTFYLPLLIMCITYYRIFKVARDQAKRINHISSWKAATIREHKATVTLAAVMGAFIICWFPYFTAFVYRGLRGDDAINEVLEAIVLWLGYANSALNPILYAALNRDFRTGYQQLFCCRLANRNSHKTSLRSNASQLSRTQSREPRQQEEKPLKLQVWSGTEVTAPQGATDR
Chain of 5-hydroxytryptamine receptor 1D (Homo sapiens) (P28221 whole entry): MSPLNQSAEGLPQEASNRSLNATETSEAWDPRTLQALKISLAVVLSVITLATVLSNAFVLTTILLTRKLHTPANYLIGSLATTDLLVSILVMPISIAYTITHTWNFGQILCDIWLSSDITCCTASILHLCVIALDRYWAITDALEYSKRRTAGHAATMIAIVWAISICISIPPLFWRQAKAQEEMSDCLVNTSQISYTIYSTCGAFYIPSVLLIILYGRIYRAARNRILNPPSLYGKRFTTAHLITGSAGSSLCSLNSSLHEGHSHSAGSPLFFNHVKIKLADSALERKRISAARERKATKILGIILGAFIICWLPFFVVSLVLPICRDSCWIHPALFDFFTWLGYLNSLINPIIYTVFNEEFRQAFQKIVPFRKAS
Chain of Mu-type opioid receptor (Homo sapiens) (P35372 whole entry): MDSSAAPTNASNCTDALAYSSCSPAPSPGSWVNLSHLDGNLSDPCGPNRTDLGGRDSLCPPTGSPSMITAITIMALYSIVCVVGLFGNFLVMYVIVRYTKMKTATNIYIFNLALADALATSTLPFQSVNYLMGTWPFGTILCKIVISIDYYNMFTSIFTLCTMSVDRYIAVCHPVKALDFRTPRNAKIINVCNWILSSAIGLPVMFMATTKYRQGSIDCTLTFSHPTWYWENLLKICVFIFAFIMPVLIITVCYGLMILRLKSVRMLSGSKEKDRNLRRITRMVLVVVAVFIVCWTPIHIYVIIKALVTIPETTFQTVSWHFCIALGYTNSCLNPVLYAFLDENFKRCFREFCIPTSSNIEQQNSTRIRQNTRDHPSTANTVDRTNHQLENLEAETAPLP

For `Cc1cc([C@@H](C)Nc2cccc(-c3cc(C)c(C(=O)N[C@@H](C)C(=O)O)c(C)c3)c2)ccc1Cl`, the inhibition (in general, the drop in the measured response relative to a control, in per cent) was 22.5% in assay [1]; -0.82% in assay [2]; 70.7% in assay [3]; 21.2% in assay [4]; 16.5% in assay [5].

As to `CC1=C2C[C@H]3[C@@H](CC=C4C[C@@H](O)CC[C@@]43C)[C@@H]2CC[C@]12O[C@@H]1C[C@H](C)CN[C@H]1[C@H]2C`, the inhibition in [1] is 20.5%; in assay [6] it was 13.7%; in assay [7] it was -1.14%; in assay [3] it was 38.6%; in [4] it was 22.8%; in [5] it was 10.4%.

Consider `COc1ccc(CNC(=O)c2cc(-c3cncc(Cl)c3)cnc2-c2ccccn2)nc1OC`, for which the inhibition in assay [1] is -5.76%; in assay [6] it was 0.01%; in assay [8] it was 0.79%; in assay [4], -7.31%; in [9] it was -5.62%; in assay [5] it was 30.5%.

For the compound `CCOC(=O)c1cc(C#N)c(N2CCC(C(=O)NS(=O)(=O)Cc3ccccc3)CC2)nc1C`, the inhibition in assay [1] was 17.2%; in [2], 6.09%; in [6], -8.97%; in [3], 21.2%; in assay [8], 28.6%; in [5], 4.87%.

Consider `CC(C)NC(=O)c1ccc(C#Cc2ccncc2)cn1`, for which the inhibition in assay [1] is 25.7%; in [3], 29.8%; in assay [8], 43.2%; in assay [4] it was -0.6%; in assay [5] it was 0.15%.

Consider `N#Cc1c(O)nc(SCc2cccc(F)c2F)nc1C1CC1`, for which the inhibition in assay [1] is 6.35%; in assay [2] it was -5.1%; in assay [6] it was -9.08%; in assay [4], -6.12%; in assay [9], 38.9%.

In the case of `OCc1cc(C(O)CNCCCCCCOCCCCc2ccccc2)ccc1O` (configuration not stated), the inhibition in assay [2] is 60.6%; in assay [6], 47.7%; in assay [7], 58%; in assay [8], 60.2%; in [4], 19.1%; in assay [9], 76.6%. For the same compound, in assay [5], the inhibition is 6.99%.

Take `CN(C)S(=O)(=O)c1ccc(NC(=S)N2CCC(C(O)(c3ccccc3)c3ccccc3)CC2)cc1`: the inhibition in assay [1] is 18.6%; in [2], 3.54%; in assay [6] it was -3.51%; in assay [7], -9.2%; in [3], 57.7%; in assay [4], 8.52%. For the same compound, the inhibition in [5] was 2.22%.

Regarding `Cc1nc(-c2ccc(C(F)(F)F)cc2)sc1COc1ccc([C@H](CC(=O)O)c2ccon2)cc1`, the inhibition in [1] is 15.9%; in [2], -6.07%; in assay [6], 69%; in [9] it was 8.11%; in assay [5], -7.02%.

`O=C(O)COc1cccc(CN(Cc2ccc(-n3cccn3)cc2)S(=O)(=O)c2cccnc2)c1`: the inhibition in assay [1] was 3.71%; in [2], 29.9%; in [6], -5.67%; in assay [7], -8.07%; in assay [8], -5.22%; in assay [4] it was 3.45%. For the same compound, the inhibition in assay [5] is -4.37%.

`COc1cccc(-c2c(C)n(Cc3c(F)cccc3C(F)(F)F)c(=O)n(C[C@H](NCCCC(=O)O)c3ccccc3)c2=O)c1F`: the inhibition in assay [2] was 1.76%; in assay [3] it was 44.5%; in assay [4] it was 26.2%; in [5] it was 11.9%.

In the case of `CN1CCC(C(=O)c2cccc(NC(=O)c3c(F)cc(F)cc3F)n2)CC1`, the inhibition is 6.11% in assay [2]; 8.88% in assay [6]; 19.9% in assay [7]; 64% in assay [8]; 43.1% in assay [4]; 80.7% in [9]. Moreover, in assay [5], the inhibition was 10.5%.

With `FC(F)(F)c1c(N2CCC(c3ccccc3)CC2)ccn2c(CC3CC3)nnc12`, the inhibition in assay [1] is 12.3%; in assay [3], 4.3%; in [8] it was -6.28%; in [4], -1.64%; in [5], 19.7%.

`CN(C)C(=O)N[C@H]1CC[C@H](CCN2CCN(c3cccc(Cl)c3Cl)CC2)CC1`: the inhibition in assay [2] is 97.3%; in [6], 83.4%; in [7] it was 95%; in assay [8] it was 59.3%; in assay [4], 11.8%; in assay [9], 101%. Further, in assay [5], the inhibition was 4.29%.

In the case of `C[N+]1(C)[C@@H]2C[C@@H](OC(=O)C(O)(c3cccs3)c3cccs3)C[C@H]1[C@@H]1O[C@@H]12`, the inhibition was -6.52% in assay [2]; -7.35% in assay [6]; 6.5% in [7]; 97.4% in assay [8]; 94.5% in assay [4]; 32.9% in assay [9]. Besides, the inhibition in [5] was 10.3%.

Regarding `CCCNS(=O)(=O)Nc1ncnc(OCCOc2ncc(Br)cn2)c1-c1ccc(Br)cc1`, the inhibition in assay [2] was 4.95%; in assay [6], 12.1%; in [3] it was 42.6%; in assay [8], 11.6%; in assay [9] it was 9.11%; in [5] it was 30.6%.

`Cc1cc(NC(=O)NCCN2CCC(O)(Cc3ccccc3)CC2)c2ccccc2n1`: the inhibition in assay [2] is 92.3%; in [6] it was 26.1%; in [7], 82.4%; in [8], 44%; in assay [4], 13.7%; in [9], 91.7%. In addition, the inhibition in [5] was 43.3%.

Turning to `O=C(O)C1CN(Cc2ccc(-c3nc4cc(Cc5ccccc5F)ccc4s3)c(F)c2)C1`, the inhibition is 1.06% in assay [1]; 35.8% in [2]; -2.08% in assay [3]; 0.63% in assay [4]; -9.83% in [5].
